Test results taken from PubChem BioAssay (NCI).
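Five concentrations, 48 hours, 96-well plates. Abbreviation: GI50, concentration required for 50% inhibition of growth. TGI denotes the concentration required for complete inhibition of growth.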

Experiments:
Assay in all cases: DTP human tumour cell line panel, 48 h
KM12 colon = system: KM12 colon
OVCAR-8 ovarian = system: OVCAR-8 ovarian
A549 NSCLC = system: A549 NSCLC
TK-10 renal = system: TK-10 renal
NCI-H23 lung = system: NCI-H23 lung
UACC-257 melanoma = system: UACC-257 melanoma
CAKI-1 renal = system: CAKI-1 renal
NCI-H460 lung = system: NCI-H460 lung
OVCAR-4 ovarian = system: OVCAR-4 ovarian
HCT-15 colon = system: HCT-15 colon

SMILES	GI50 (KM12 colon) [µM]	TGI (KM12 colon) [µM]	GI50 (OVCAR-8 ovarian) [µM]	TGI (OVCAR-8 ovarian) [µM]	GI50 (A549 NSCLC) [µM]	TGI (A549 NSCLC) [µM]	GI50 (TK-10 renal) [µM]	TGI (TK-10 renal) [µM]	GI50 (NCI-H23 lung) [µM]	TGI (NCI-H23 lung) [µM]	TGI (UACC-257 melanoma) [µM]	TGI (CAKI-1 renal) [µM]	GI50 (NCI-H460 lung) [µM]	TGI (NCI-H460 lung) [µM]	GI50 (OVCAR-4 ovarian) [µM]	TGI (OVCAR-4 ovarian) [µM]	GI50 (HCT-15 colon) [µM]	TGI (HCT-15 colon) [µM]	GI50 (UACC-257 melanoma) [µM]	GI50 (CAKI-1 renal) [µM]
O=c1ccn(C2OC(CO)C(O)C2O)c(=O)[nH]1 (stereo not drawn)	> 1000	> 1000	> 1000	> 1000	> 1000	> 1000	> 1000	> 1000	> 1000	> 1000	> 1000	> 1000	> 1000	> 1000	> 1000	> 1000	> 1000	> 1000	–	–
COc1ccc2c(c1)C(=O)CC(N)C2 (stereo not drawn)	–	> 100	–	> 100	–	> 100	–	> 100	–	> 100	> 100	> 100	–	> 100	–	> 100	–	> 100	–	–
CCCCNc1nc(NC(C)(C)C)nc(NC(C)(C)C)n1	4.87	> 100	4.74	> 100	4.41	> 100	52.6	> 100	5.89	> 100	> 100	> 100	5.13	> 100	3.03	> 100	2.97	> 100	81.3	5.55
CC(=O)O/N=C/c1ncccc1CO	–	> 100	–	> 100	–	> 100	–	> 100	–	> 100	> 100	> 100	–	> 100	–	> 100	–	> 100	–	–
CC(=O)O[C@H]1C(N(C)C(=O)c2ccccc2)CC[C@]2(C)C3CC[C@@]4(C)C(CC(O)[C@@H]4C(C)N(C)C)[C@@H]3CCC12 (stereo partly drawn)	–	> 100	–	> 100	–	> 100	–	> 100	–	> 100	> 100	> 100	–	> 100	–	> 100	–	> 100	–	–
COc1cc2nc(-c3ccc(C(F)(F)F)cc3)cc(OCCCN3CCOCC3)c2cc1OC	3.42	22	1.95	28.8	1.04	20	13.9	30.6	2.36	12	5.68	11.2	0.639	13.6	10.3	23.2	0.52	5.57	1.67	0.167
COc1ccc(/C=C/c2cc(OC)c(OC)c(OC)c2)cc1NC(=O)/C=C/c1ccc(F)cc1	2.96	> 100	3.37	> 100	3.41	> 100	4.73	> 100	3.41	> 100	> 100	> 100	3.09	> 100	5.95	> 100	4	> 100	3.02	2.11
Nc1nc(-c2cccc([N+](=O)[O-])c2)c(Br)c(=O)[nH]1	–	> 100	–	> 100	–	> 71.4	–	> 100	–	> 100	> 71.4	> 100	–	> 100	–	> 100	–	> 100	–	–
Cc1c(CCCl)c(=O)n2c([nH]c3ccccc32)c1C#N	–	3.14	–	3.15	–	3.53	–	5.62	–	3.49	8.04	2.77	–	3.96	–	3.16	–	2.93	–	–
CCOC(=O)[C@@H](C)C[C@H](Cc1ccccc1)NC(=O)c1csc([C@@H](C[C@H](C(C)C)N(C)C(=O)[C@@H](NC(=O)[C@H]2C[C@H](O[Si](C)(C)C(C)(C)C)CCN2C)C(C)C)OC(C)=O)n1	0.241	> 8.33	0.744	> 8.33	0.379	> 8.33	0.946	> 8.33	0.333	> 8.33	> 8.33	> 8.33	0.188	1.34	0.674	> 8.33	0.427	> 5.02	0.789	0.351
COc1cc(OC2OC(C)C(O)C(O)C2O)cc2oc(-c3ccc(O)cc3)c(CC=C(C)C)c(=O)c12 (stereo not drawn)	12.2	31	32.3	> 100	22.8	68.5	25	64.7	18.6	47.4	68.4	40.7	14.7	38.7	2.06	18.9	16.8	52.1	29.6	14.1
C=CCc1cc2cccc(OC)c2oc1=O	–	> 100	–	> 100	–	> 100	–	> 100	–	> 100	> 100	> 100	–	> 100	–	> 100	–	> 100	–	–
Cc1ccc(C(=O)c2oc3ccc4c(C)cc(=O)oc4c3c2C)cc1	63.3	> 100	6.08	> 100	4.97	> 100	45.1	> 100	27.3	> 100	> 100	> 100	0.896	18.2	23.6	75.5	0.585	> 100	35.9	5.78
CCC(=O)c1cn(C)c(=O)c2ccccc12	–	> 100	–	> 100	–	> 100	–	> 100	–	> 100	> 100	> 100	–	> 100	–	> 100	–	> 100	–	–
Clc1nc(Oc2ccccc2)nc(-c2cn(-c3ccccc3)c3ccccc23)n1	7.51	19.9	3.25	11	27.4	> 67.4	28.7	67.1	7.31	22.4	25	12.9	21.4	> 71.7	6.4	18.7	5.38	18	9.2	5.69
